Experiments:
[1] = test system: Human immunodeficiency virus 1; assay: Antiviral activity against HIV1 NL4.3 infected in human MT4 cells expressing CD4 and CXCR4 assessed as inhibition of virus-induced cytopathicity; type: functional, organism-based; conditions: Human immunodeficiency virus 1, NL4.3, MT4
[2] = Cytotoxicity against human MT4 cells expressing CD4 and CXCR4 assessed as cell viability
[3] = target: T1, C-X-C chemokine receptor type 4 (Homo sapiens, UniProt P61073); assay: Antagonist activity at CXCR4 in human CEM-CCRF cells assessed as inhibition of SDF-1-induced calcium flux; type: functional, cell-based
T1 sequence (P61073 whole entry): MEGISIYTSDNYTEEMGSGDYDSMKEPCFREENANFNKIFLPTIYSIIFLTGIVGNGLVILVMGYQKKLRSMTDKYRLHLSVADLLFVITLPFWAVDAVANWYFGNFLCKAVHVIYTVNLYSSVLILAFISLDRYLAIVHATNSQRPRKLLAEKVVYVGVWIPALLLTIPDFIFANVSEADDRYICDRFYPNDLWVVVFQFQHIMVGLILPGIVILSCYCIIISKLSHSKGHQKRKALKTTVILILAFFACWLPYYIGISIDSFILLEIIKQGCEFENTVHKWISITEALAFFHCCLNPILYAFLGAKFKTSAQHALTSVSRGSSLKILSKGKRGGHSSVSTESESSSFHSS

[4] = target: T1, C-X-C chemokine receptor type 4; assay: Inhibition of anti-CXCR4 12G5 monoclonal antibody to CXCR4 in human SUP-T1 cells pretreated for 30 mins by flow cytometry; type: cell-based
[5] = MT4 cells expressing CD4 and CXCR4

IC50 [1] [nM] | IC50 [3] [nM] | IC50 [4] [nM] | Compound | CC50 [2, 5] [nM] | CC50 ([2]; mt4) [nM]
> 25000 | – | – | NCCN(Cc1ccc(CNCc2ccccn2)cc1)C1CCCc2cccnc21 (configuration not stated) | 126000 | –
270 | – | – | c1ccc(CNCc2ccc(CN(Cc3ccccn3)C3CCCc4cccnc43)cc2)nc1 (configuration not stated) | 44000 | –
14100 | – | – | c1ccc(CNCc2ccc(CNC3CCc4cccnc43)cc2)nc1 (configuration not stated) | – | –
200 | – | – | c1ccc(CNCc2ccc(CN(Cc3ncc[nH]3)C3CCCc4cccnc43)cc2)nc1 (configuration not stated) | 500 | –
1440 | – | – | O=C(NCc1ccccn1)c1ccc(CN(Cc2nc3ccccc3[nH]2)C2CCCc3cccnc32)cc1 (configuration not stated) | 127000 | –
4900 | – | – | c1ccc(CNCc2ccc(CN(Cc3ccccn3)C3CCc4cccnc43)cc2)nc1 (configuration not stated) | 124000 | –
1370 | 1370 | – | NCCN(Cc1nc2ccccc2[nH]1)C1CCCc2cccnc21 (configuration not stated) | 6860 | –
1200 | – | – | c1ccc(CNCc2ccc(CN(CCCc3nc4ccccc4[nH]3)C3CCCc4cccnc43)cc2)nc1 (configuration not stated) | 101000 | –
170 | 973 | – | NCC#CCN(Cc1nc2ccccc2[nH]1)C1CCCc2cccnc21 (configuration not stated) | 10800 | –
2100 | – | – | c1ccc(CCN(Cc2ccc(CNCc3ccccn3)cc2)C2CCCc3cccnc32)nc1 (configuration not stated) | > 118000 | –
575 | 1400 | – | NCc1cccc(CN(Cc2nc3ccccc3[nH]2)C2CCCc3cccnc32)c1 (configuration not stated) | 45900 | –
980 | – | – | O=C(Nc1ccccn1)c1ccc(CN(Cc2nc3ccccc3[nH]2)C2CCCc3cccnc32)cc1 (configuration not stated) | 34300 | –
15 | 77 | – | NC/C=C\CN(Cc1nc2ccccc2[nH]1)C1CCCc2cccnc21 (configuration not stated) | 51900 | –
4.8 | – | – | NCCCCN(Cc1nc2ccccc2[nH]1)C1CCCc2cccnc21 (configuration not stated) | 160000 | –
21 | 50 | – | NCc1ccccc1CN(Cc1nc2ccccc2[nH]1)C1CCCc2cccnc21 (configuration not stated) | 29600 | –
920 | – | – | c1ccc(CNCCN(Cc2ccc(CNCc3ccccn3)cc2)C2CCCc3cccnc32)cc1 (configuration not stated) | 23000 | –
28 | 160 | – | NC/C=C/CN(Cc1nc2ccccc2[nH]1)C1CCCc2cccnc21 (configuration not stated) | 50800 | –
2700 | – | – | c1ccc(CNCc2ccc(CNC3CCCc4cccnc43)cc2)nc1 (configuration not stated) | – | –
144 | – | – | NCCCCN(Cc1nc2ccccc2[nH]1)[C@@H]1CCCc2cccnc21 | – | –
774 | 442 | – | N#CCCCCN(Cc1nc2ccccc2[nH]1)C1CCCc2cccnc21 (configuration not stated) | – | 55300

IC50 [1] [nM] | IC50 [3] [nM] | IC50 [4] [nM] | Compound | CC50 [2, 5] [nM] | CC50 ([2]; mt4) [nM]
167 | 119 | – | NCc1ccc(CN(Cc2nc3ccccc3[nH]2)C2CCCc3cccnc32)cc1 (configuration not stated) | 238000 | –
77 | 68 | – | NCCCN(Cc1nc2ccccc2[nH]1)C1CCCc2cccnc21 (configuration not stated) | 32900 | –
101 | 75 | – | NCCCCCCN(Cc1nc2ccccc2[nH]1)C1CCCc2cccnc21 (configuration not stated) | – | 30200
51 | 87 | – | CN(C)CCCCN(Cc1nc2ccccc2[nH]1)C1CCCc2cccnc21 (configuration not stated) | 29500 | –
60 | – | – | c1ccc(CNCCN(Cc2ccc(CNCc3ccccn3)cc2)C2CCCc3cccnc32)nc1 (configuration not stated) | 21000 | –
660 | – | – | O=C(Nc1ccc(CN(Cc2nc3ccccc3[nH]2)C2CCCc3cccnc32)cc1)c1ccccn1 (configuration not stated) | 37500 | –
4600 | – | – | c1ccc(CNCc2ccc(CN(Cc3nc4ccccc4s3)C3CCCc4cccnc43)cc2)nc1 (configuration not stated) | 22300 | –
1100 | – | – | c1ccc(CNCc2ccc(CN(CCc3nc4ccccc4[nH]3)C3CCCc4cccnc43)cc2)nc1 (configuration not stated) | 23100 | –
1600 | – | – | c1ccc(CNCc2ccc(CN(Cc3cc4ccccc4[nH]3)C3CCCc4cccnc43)cc2)nc1 (configuration not stated) | 8000 | –
95 | – | – | c1ccc(CNCc2ccc(CN(Cc3nc4ccccc4[nH]3)C3CCCc4cccnc43)cc2)cc1 (configuration not stated) | 26400 | –
1080 | – | 29200 | c1ccc(CNCc2ccc(CN(Cc3nc4ccccc4[nH]3)[C@@H]3CCCc4cccnc43)cc2)nc1 | – | –
880 | – | – | O=C(NCc1ccc(CN(Cc2nc3ccccc3[nH]2)C2CCCc3cccnc32)cc1)c1ccccn1 (configuration not stated) | 36800 | –
– | 190 | – | CNCCCCN(Cc1nc2ccccc2[nH]1)C1CCCc2cccnc21 (configuration not stated) | 28200 | –
74 | 514 | – | NCCCCCN(Cc1nc2ccccc2[nH]1)C1CCCc2cccnc21 (configuration not stated) | 30200 | –
2640 | 3200 | – | NCCCC(=O)N(Cc1nc2ccccc2[nH]1)C1CCCc2cccnc21 (configuration not stated) | 152000 | –
> 4300 | – | – | c1ccc(CN(Cc2ccc(CNCc3ccccn3)cc2)C2CCCc3cccnc32)cc1 (configuration not stated) | 21000 | –
9100 | – | – | c1ccc(CNCc2ccc(CN(Cc3nc4ccccc4o3)C3CCCc4cccnc43)cc2)nc1 (configuration not stated) | 204000 | –
18800 | – | – | c1ccc(CNCc2ccc(CN(Cn3cnc4ccccc43)C3CCCc4cccnc43)cc2)nc1 (configuration not stated) | 21000 | –
2500 | – | – | c1ccc(CNCc2ccc(CNC3CCCCc4cccnc43)cc2)nc1 (configuration not stated) | – | –

From ChEMBL document CHEMBL1156989, “Discovery of novel small molecule orally bioavailable C-X-C chemokine receptor 4 antagonists that are potent inhibitors of T-tropic (X4) HIV-1 replication” (J Med Chem, 2010)
